# Measurements published in patent US12150940B2, “WASp-protecting small molecules, compositions, methods and uses thereof in the treatment of innate and acquired immune-related disorders or conditions” (BAR ILAN UNIVERSITY, priority 2016, dated 2024).
# Peptide text beside a SMILES is read from it. * marks the point of attachment. Cbz = O=C(OCc1ccccc1)*
# Legend:
# WASp = target: T1, WASp (Homo sapiens, UniProt P42768); assay: WASp expression in TRAP-6-activated platelets (western blot); format: cell-based
# T1 construct: endogenous in cells; host or cells: primary human platelets from healthy donors
# T1 sequence (P42768 1-502): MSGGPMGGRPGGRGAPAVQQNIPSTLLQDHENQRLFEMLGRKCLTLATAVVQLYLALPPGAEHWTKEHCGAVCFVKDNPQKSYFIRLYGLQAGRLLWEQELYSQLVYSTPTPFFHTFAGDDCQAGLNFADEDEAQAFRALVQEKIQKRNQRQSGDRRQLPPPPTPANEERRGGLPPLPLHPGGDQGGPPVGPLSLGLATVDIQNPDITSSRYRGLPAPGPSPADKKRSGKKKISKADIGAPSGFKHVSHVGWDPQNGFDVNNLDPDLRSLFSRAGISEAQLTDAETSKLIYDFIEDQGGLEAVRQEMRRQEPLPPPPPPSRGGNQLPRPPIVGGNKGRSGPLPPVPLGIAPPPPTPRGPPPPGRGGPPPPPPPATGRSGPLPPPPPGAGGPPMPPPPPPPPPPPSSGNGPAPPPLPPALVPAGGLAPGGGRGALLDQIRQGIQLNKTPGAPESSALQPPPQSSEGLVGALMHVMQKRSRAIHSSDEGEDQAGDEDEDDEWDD
# Protocol: FIG. 4A-4B. Freshly-isolated platelets were incubated with SMC #6 or control at 37° C. for the indicated times. The platelets were either stimulated (+) with TRAP-6 (10 μM) or left unstimulated (−), followed by lysis. Lysates were analyzed for WASp expression by immunoblotting with anti-WASp and anti-GAPDH as loading control (FIG. 4A). Relative WASp expression was determined by densitometric analysis and is presented in a summarizing graph of FIG. 4B. Error bars represent the SE from the mean. P values are presented and were calculated by two-tailed Student's t-test. Data are representative of three independent experiments.
# Jurkat T-cells (FIG. 5A) or Freshly-isolated PBMCs (FIG. 5B) were incubated for 15 min at 37° C. with either control or the indicated WASp-binding SMCs, followed by co-stimulation with anti-CD3 and anti-CD28 and lysis. Freshly-isolated platelets were incubated for 15 min at 37° C. with either control or the indicated WASp-binding SMCs, followed by stimulation with TRAP-6 (10 μM) and lysis (FIG. 5C). Lysates were analyzed for WASp expression by immunoblotting with anti-WASp and anti-GAPDH as loading control. Western blot is representative of three independent experiments. […] Relative WASp expression was determined by densitometric analysis. […]
# FIG. 6A-6D. […] Lysates were analyzed for WASp expression by immunoblotting with anti-WASp and anti-GAPDH as loading control (FIG. 6A). […]
# WAS−/− Jurkat T-cells = assay: Lymphocyte activation (CD69, flow cytometry), WAS−/− cells; format: cell-based, human
# Protocol: 1×10^6 WASp knockout Jurkat T-cell line that expresses only exogenous YFP-WASp harboring the common human WAS and XLT mutation, R86C (WAS−/−/WASp R86C) was pretreated with either negative control or SMC #34. Cells that completely lack WASp expression (WAS^−/−) were also treated with the control. The cells were then stimulated with PMA and Ionomycin. After incubation, the cells were stained with PE-Cy5™-conjugated mouse anti-human CD69 and lymphocyte activation was measured by flow cytometry as described in Experimental procedures. Histogram of negative control versus SMC #34 is presented.
# PBMCs or Jurkat cells (about 3×10^5 cells) were incubated for 4 h, at 37° C. with 50 ng/ml PMA and 250 ng/ml lonomycin, or 40 ng/ml PMA and 6 μM Ionomycin, respectively, or left untreated. After incubation, the cells were collected and stained with 1 μg/ml anti-active human LFA-1 antibody (purified from KIM127 hybridoma sup, ATCC Cat #: CRL-2838, Sigma) for 30 min in 37° C., followed by staining with Alexa488-Fluor goat anti-mouse IgG1 secondary antibody (Molecular Probes, Cat #: A-21121), 30 min on ice. Cells were then co-stained with PE-Cy5™-conjugated mouse anti-human CD69 (BD Pharmingen, Cat #: 555532) to measure lymphocyte activation.
smiles,measurement,setting,value
CC(C)C[C@@H](C=O)NC(=O)[C@H](CC(C)C)NC(=O)[C@H](CC(C)C)NC(=O)OCc1ccccc1 [MG132] (Cbz-Leu-Leu-Leu-aldehyde),increase in WASp expression,"WASp; platelets after 15 min of activation, with vs without proteasome inhibitor (10 μM, 1 h)",more than 2 fold
"CC1CCCC(C)N1C(=O)CSc1nnc(COc2cccc3cccnc23)o1 (stereo not drawn) [SMC #34, 1-(2,6-dimethylpiperidin-1-yl)-2-[[5-(quinolin-8-yloxymethyl)-1,3,4-oxadiazol-2-yl]sulfanyl]ethanone]",lymphocyte activation (CD69),WAS−/− Jurkat T-cells,restored the activation
"CC(=O)N[C@H]1C[C@@H](c2ccc3c(c2)nnn3C)O[C@@H](c2ccc(Cl)cc2)C1 [SMC #6, N-[(2R,4R,6S)-2-(4-chlorophenyl)-6-(1-methylbenzotriazol-5-yl)oxan-4-yl]acetamide]",WASp degradation in activated platelets,"WASp; 40 μM, 15 min pre-incubation, vs DMSO control",attenuated WASp degradation
